Publication PMC5635128 (Scientific Reports, 2017)

How the values were obtained:
Test in all cases: biochemical
Set-up in all cases: KINOMEscan competition binding assay, kinase captured on immobilized ligand, per cent of DMSO control
Conditions in all cases: read-out: % Ctrl
TIE2 = biological target: T1, TIE2 (Homo sapiens, UniProt Q02763)
T1 construct: gene TEK
Method: (§1) Competition binding assays were performed by DiscoverX (Freemont, CA, USA). […] S-Score^35 = (number of non-mutant kinases with %Ctrl < 35)/(number of non-mutant kinases tested). […] Kds are calculated […] by measuring the amount of kinase captured on the solid support as a function of the test compound concentration (n = 2, mean ± range).

TLK1 = TLK1 (Homo sapiens, UniProt Q9UKI8)
TLK1, sequence (Q9UKI8 whole entry): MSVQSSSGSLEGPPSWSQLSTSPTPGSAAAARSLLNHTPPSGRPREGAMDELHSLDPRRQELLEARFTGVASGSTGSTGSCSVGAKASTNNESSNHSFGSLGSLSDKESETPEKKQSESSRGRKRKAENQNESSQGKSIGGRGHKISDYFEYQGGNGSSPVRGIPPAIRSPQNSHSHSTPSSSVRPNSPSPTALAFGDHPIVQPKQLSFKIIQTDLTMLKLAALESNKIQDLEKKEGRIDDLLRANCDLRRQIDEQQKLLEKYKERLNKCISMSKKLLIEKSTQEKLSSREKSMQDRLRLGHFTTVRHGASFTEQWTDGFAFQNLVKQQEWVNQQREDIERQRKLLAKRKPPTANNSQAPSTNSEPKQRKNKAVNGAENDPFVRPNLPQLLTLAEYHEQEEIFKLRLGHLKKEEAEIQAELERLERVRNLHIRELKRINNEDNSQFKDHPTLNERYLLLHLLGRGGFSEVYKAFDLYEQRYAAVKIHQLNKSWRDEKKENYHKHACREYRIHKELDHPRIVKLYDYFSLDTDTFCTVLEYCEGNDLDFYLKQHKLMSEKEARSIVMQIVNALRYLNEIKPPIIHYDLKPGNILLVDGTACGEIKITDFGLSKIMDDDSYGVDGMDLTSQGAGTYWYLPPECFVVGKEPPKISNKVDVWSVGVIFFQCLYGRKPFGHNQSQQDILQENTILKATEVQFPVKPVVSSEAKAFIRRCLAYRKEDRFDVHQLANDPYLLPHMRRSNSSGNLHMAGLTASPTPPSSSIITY
Method: as §1

TLK2 = TLK2 (Homo sapiens, UniProt Q86UE8)
Method: as §1

TNIK = TNIK (Homo sapiens, UniProt Q9UKE5)
Method: as §1

TNK1 = TNK1 (Homo sapiens, UniProt Q13470)
TNK1, sequence (Q13470 whole entry): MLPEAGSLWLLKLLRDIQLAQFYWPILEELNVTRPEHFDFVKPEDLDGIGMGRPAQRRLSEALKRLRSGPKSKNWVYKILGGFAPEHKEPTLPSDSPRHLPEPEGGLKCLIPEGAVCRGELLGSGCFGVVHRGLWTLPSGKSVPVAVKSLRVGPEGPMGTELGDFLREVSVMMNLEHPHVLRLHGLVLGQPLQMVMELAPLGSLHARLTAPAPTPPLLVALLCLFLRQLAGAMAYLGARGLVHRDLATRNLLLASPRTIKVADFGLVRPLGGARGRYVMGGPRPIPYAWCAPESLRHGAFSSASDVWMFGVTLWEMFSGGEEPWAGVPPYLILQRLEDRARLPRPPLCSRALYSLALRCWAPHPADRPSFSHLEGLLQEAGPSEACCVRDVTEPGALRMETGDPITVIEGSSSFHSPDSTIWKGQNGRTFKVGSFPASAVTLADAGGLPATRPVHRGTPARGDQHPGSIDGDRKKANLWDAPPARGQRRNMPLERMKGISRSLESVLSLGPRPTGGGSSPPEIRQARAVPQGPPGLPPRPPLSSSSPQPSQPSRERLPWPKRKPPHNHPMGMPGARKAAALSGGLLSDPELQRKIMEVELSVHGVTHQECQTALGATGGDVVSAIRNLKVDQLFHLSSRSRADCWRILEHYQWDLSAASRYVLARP
Method: as §1

TNK2 = TNK2 (Homo sapiens, UniProt Q07912)
Method: as §1

TNNI3K = TNNI3K (Homo sapiens, UniProt Q59H18)
Method: as §1

TRKA = biological target: T2, TRKA (Homo sapiens, UniProt P04629)
T2 construct: gene NTRK1
Method: as §1

TRKB = biological target: T3, TRKB (Homo sapiens, UniProt Q16620)
T3 construct: gene NTRK2
Method: as §1

TRKC = biological target: T4, TRKC (Homo sapiens, UniProt Q16288)
T4 construct: gene NTRK3
Method: as §1

TRPM6 = TRPM6 (Homo sapiens, UniProt Q9BX84)
Method: as §1

TSSK1B = TSSK1B (Homo sapiens, UniProt Q9BXA7)
Method: as §1

TTK = TTK (Homo sapiens, UniProt P33981)
Method: as §1

TXK = TXK (Homo sapiens, UniProt P42681)
Method: as §1

[1] = biological target: T5, TYK2(JH1domain-catalytic) (Homo sapiens, UniProt P29597)
T5 construct: JH1domain-catalytic
Method: as §1

[2] = biological target: T6, TYK2(JH2domain-pseudokinase) (Homo sapiens, UniProt P29597)
T6 construct: JH2domain-pseudokinase
Method: as §1

TYRO3 = TYRO3 (Homo sapiens, UniProt Q06418)
Method: as §1

ULK1 = ULK1 (Homo sapiens, UniProt O75385)
Method: as §1

ULK2 = ULK2 (Homo sapiens, UniProt Q8IYT8)
Method: as §1

ULK3 = ULK3 (Homo sapiens, UniProt Q6PHR2)
Method: as §1

VEGFR2 = biological target: T7, VEGFR2 (Homo sapiens, UniProt P35968)
T7 construct: gene KDR
T7 sequence (P35968 whole entry): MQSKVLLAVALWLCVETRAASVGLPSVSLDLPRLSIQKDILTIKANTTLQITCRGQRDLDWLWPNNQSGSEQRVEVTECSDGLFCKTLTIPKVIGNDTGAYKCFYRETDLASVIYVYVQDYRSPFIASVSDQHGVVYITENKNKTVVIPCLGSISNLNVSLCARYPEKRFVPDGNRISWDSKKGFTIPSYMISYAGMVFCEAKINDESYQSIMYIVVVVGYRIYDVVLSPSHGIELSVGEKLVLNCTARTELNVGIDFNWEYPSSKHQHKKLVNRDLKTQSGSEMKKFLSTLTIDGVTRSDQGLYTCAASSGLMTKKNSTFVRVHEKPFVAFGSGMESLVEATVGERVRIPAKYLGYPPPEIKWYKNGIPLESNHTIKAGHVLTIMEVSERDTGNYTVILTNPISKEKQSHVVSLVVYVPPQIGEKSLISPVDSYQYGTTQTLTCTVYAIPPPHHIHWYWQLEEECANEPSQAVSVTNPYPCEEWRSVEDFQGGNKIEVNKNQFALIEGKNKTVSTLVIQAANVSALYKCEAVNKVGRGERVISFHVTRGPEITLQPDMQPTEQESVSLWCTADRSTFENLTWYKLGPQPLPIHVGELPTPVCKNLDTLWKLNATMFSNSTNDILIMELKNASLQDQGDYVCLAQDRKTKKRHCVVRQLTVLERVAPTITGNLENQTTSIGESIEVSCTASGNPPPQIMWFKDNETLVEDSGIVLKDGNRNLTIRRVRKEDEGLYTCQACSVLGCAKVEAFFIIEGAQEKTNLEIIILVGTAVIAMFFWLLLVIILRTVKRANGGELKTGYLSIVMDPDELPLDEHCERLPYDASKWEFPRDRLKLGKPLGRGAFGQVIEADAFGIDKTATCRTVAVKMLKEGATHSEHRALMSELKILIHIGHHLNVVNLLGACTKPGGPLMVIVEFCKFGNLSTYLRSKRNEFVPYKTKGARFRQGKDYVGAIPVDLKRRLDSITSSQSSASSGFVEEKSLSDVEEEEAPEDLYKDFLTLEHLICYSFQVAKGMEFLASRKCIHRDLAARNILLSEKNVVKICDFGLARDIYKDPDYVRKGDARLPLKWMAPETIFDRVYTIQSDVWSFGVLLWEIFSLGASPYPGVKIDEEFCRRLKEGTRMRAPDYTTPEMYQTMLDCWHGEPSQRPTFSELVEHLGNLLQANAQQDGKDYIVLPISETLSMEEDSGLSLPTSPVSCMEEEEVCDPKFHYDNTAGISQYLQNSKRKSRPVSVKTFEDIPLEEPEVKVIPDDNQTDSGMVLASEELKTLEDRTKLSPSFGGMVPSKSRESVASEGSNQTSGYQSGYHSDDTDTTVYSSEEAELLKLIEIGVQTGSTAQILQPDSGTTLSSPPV
Method: as §1

VRK2 = VRK2 (Homo sapiens, UniProt Q86Y07)
Method: as §1

WEE1 = WEE1 (Homo sapiens, UniProt P30291)
Method: as §1

WEE2 = WEE2 (Homo sapiens, UniProt P0C1S8)
WEE2, sequence (P0C1S8 whole entry): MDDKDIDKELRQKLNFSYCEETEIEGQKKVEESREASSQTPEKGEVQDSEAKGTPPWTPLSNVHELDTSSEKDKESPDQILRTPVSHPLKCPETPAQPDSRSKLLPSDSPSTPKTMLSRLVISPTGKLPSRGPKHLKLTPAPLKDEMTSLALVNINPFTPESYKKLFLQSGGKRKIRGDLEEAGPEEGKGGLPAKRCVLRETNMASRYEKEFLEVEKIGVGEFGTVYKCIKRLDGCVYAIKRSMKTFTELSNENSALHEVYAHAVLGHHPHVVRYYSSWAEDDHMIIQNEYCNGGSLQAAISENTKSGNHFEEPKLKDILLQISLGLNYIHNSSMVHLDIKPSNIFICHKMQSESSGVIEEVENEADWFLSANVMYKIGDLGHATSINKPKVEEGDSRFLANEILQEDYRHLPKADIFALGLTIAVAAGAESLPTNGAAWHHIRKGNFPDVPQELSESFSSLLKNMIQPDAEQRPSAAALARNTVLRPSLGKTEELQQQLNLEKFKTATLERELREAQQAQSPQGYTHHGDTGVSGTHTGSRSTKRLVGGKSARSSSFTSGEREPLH
Method: as §1

WNK1 = WNK1 (Homo sapiens, UniProt Q9H4A3)
Method: as §1

WNK3 = WNK3 (Homo sapiens, UniProt Q9BYP7)
Method: as §1

YANK1 = biological target: T8, YANK1 (Homo sapiens, UniProt Q8WU08)
T8 construct: gene STK32A
Method: as §1

YANK2 = biological target: T9, YANK2 (Homo sapiens, UniProt Q9NY57)
T9 construct: gene STK32B
Method: as §1

YANK3 = biological target: T10, YANK3 (Homo sapiens, UniProt Q86UX6)
T10 construct: gene STK32C
Method: as §1

YES = biological target: T11, YES (Homo sapiens, UniProt P07947)
T11 construct: gene YES1
T11 sequence (P07947 whole entry): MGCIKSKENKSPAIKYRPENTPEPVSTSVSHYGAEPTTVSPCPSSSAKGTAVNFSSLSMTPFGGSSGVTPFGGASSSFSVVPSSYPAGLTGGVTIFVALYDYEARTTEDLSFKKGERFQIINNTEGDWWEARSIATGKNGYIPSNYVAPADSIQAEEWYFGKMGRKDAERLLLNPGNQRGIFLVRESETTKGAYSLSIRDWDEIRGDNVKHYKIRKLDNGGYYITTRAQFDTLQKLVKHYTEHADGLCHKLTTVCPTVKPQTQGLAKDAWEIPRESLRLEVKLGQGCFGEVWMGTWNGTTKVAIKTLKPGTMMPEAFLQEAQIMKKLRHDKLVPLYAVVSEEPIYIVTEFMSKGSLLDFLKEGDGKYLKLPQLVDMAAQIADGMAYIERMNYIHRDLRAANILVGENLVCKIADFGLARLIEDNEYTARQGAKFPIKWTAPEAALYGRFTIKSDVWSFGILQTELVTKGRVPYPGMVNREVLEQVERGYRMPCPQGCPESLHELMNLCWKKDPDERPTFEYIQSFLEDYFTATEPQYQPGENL
Method: as §1

YSK1 = biological target: T12, YSK1 (Homo sapiens, UniProt O00506)
T12 construct: gene STK25
Method: as §1

YSK4 = biological target: T13, YSK4 (Homo sapiens, UniProt Q56UN5)
T13 construct: gene MAP3K19
Method: as §1

ZAK = biological target: T14, ZAK (Homo sapiens, UniProt Q9NYL2)
T14 construct: gene MAP3K20
Method: as §1

ZAP70 = ZAP70 (Homo sapiens, UniProt P43403)
Method: as §1

T1 sequence (Q02763 whole entry): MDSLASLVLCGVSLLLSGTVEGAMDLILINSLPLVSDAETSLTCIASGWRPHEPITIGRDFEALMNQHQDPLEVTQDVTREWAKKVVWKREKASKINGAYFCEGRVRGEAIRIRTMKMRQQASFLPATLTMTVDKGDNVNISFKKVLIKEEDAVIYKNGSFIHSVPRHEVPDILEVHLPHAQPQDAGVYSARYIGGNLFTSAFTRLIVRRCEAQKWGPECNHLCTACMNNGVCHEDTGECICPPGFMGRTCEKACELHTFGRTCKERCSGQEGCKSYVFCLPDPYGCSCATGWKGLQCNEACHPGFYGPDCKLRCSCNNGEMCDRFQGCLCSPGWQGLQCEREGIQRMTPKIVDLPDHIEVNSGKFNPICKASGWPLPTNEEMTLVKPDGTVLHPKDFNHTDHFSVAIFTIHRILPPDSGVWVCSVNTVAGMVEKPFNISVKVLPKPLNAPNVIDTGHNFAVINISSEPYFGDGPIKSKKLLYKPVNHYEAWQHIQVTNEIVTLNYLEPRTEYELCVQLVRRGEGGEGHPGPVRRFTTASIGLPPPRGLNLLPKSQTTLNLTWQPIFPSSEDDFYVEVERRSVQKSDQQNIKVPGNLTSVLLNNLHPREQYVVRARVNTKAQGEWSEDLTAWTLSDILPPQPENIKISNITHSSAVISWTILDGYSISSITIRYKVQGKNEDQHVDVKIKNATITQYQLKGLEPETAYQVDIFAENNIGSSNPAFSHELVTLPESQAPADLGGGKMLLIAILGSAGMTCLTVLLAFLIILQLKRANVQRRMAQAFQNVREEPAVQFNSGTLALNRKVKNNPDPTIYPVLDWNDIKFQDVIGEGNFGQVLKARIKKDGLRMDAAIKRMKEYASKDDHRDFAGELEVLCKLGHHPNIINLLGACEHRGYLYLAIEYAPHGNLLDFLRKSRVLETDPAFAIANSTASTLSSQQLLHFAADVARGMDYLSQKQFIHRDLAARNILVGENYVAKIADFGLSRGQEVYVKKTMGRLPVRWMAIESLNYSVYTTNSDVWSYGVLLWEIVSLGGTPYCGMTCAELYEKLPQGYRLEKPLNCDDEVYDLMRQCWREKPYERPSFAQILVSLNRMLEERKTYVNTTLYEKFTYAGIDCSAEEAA

- percent of control binding at 10 µM (TIE2): 100%
- percent of control binding at 10 µM (TLK1): 100%
- percent of control binding at 10 µM (TLK2): 83%
- percent of control binding at 10 µM (TNIK): 85%
- percent of control binding at 10 µM (TNK1): 88%
- percent of control binding at 10 µM (TNK2): 92%
- percent of control binding at 10 µM (TNNI3K): 98%
- percent of control binding at 10 µM (TRKA): 93%
- percent of control binding at 10 µM (TRKB): 100%
- percent of control binding at 10 µM (TRKC): 100%
- percent of control binding at 10 µM (TRPM6): 60%
- percent of control binding at 10 µM (TSSK1B): 83%
- percent of control binding at 10 µM (TTK): 99%
- percent of control binding at 10 µM (TXK): 100%
- percent of control binding at 10 µM [1]: 97%
- percent of control binding at 10 µM [2]: 86%
- percent of control binding at 10 µM (TYRO3): 93%
- percent of control binding at 10 µM (ULK1): 79%
- percent of control binding at 10 µM (ULK2): 98%
- percent of control binding at 10 µM (ULK3): 71%
- percent of control binding at 10 µM (VEGFR2): 82%
- percent of control binding at 10 µM (VRK2): 58%
- percent of control binding at 10 µM (WEE1): 82%
- percent of control binding at 10 µM (WEE2): 88%
- percent of control binding at 10 µM (WNK1): 61%
- percent of control binding at 10 µM (WNK3): 50%
- percent of control binding at 10 µM (YANK1): 60%
- percent of control binding at 10 µM (YANK2): 84%
- percent of control binding at 10 µM (YANK3): 72%
- percent of control binding at 10 µM (YES): 87%
- percent of control binding at 10 µM (YSK1): 88%
- percent of control binding at 10 µM (YSK4): 81%
- percent of control binding at 10 µM (ZAK): 100%
- percent of control binding at 10 µM (ZAP70): 100%
SMILES: COc1cc(O)c2c(c1)OC(O)(c1ccc(OCc3ccccc3)cc1)CC2=O (stereo not shown) [6E11, 2-(4-(benzyloxy)phenyl)-2,5-dihydroxy-7-methoxychroman-4-one]
